Test system: breast cancer patients
Assay: Pathological complete remission (pCR) in breast cancer patients treated neoadjuvantly with ixabepilone, split by DRP prediction score (GSE41998)
Type: in vivo, human
Conditions: pre-treatment biopsy
Protocol: An mRNA-based predictor of responsiveness to ixabepilone was developed according to the methods of the invention and applied to gene expression data prepared using clinical samples from breast cancer patients, which was downloaded from Gene Expression Omnibus under accession number GSE41998 (FIG. 1). The samples were diagnostic biopsies analyzed with Affymetrix GeneChips. All the genes listed in Table 2 were measured from clinical samples on the Affymetrix GeneChip and their mean expression subtracted from the mean of all the genes in Table 1. The difference (e.g., a difference score) was then compared to a difference score produced using measured levels of the sensitivity and resistance biomarkers of Tables 1 and 2 from a reference population consisting of 279 breast cancer patients participating in a clinical trial having two treatment arms ((1) ixabepilone and (2) paclitaxel treatment), producing a percentile score on a scale from 0 to 100. As part of the clinical trial, biopsy samples from breast cancer patients later treated neoadjuvantly with ixabepilone were collected prior to treatment. Patients' responses to ixabepilone were subsequently compared to predicted ixabepilone sensitivity using the methods disclosed herein. Patients with pathological complete remission (pCR) were predicted using the disclosed methods to be more sensitive to ixabepilone than patients with no pCR (No_pCR; FIG. 1).

SMILES: C/C(=C\c1csc(C)n1)[C@@H]1C[C@@H]2O[C@]2(C)CCC[C@H](C)[C@H](O)[C@@H](C)C(=O)C(C)(C)[C@@H](O)CC(=O)N1 [ixabepilone, (1S,3S,7S,10R,11S,12S,16R)-7,11 dihydroxy-8,8,10,12,16-pentamethyl-3-[(1E)-1-methyl-2-(2-methyl-4-thiazolyl)ethenyl] 17-oxa-4-azabicyclo[14.1.0] heptadecane-5,9-dione]
- Non responders (no pCR), number of patients (DRP negative (<=50)): 52
- Responders (pCR), number of patients (DRP negative (<=50)): 8
- Non responders (no pCR), number of patients (DRP positive (>50)): 45
- Responders (pCR), number of patients (DRP positive (>50)): 27

Reference: US20230062248A1, “METHODS FOR PREDICTING IXABEPILONE RESPONSIVENESS IN CANCER PATIENTS” (Allarity Therapeutics Europe ApS, priority 2020, published 2023)
